Measured values from patent US6573254B1, “Method for the stimulation of sperm production and gonadal development in animals” (University of Maryland, priority 1998, dated 2003).

What was measured:
[1] = test system: chicks; conditions: ICV administration to chicks; cited from earlier work
[2] = test system: broiler breeders; assay: 0.2% SMZ in grower diet during photoperiodic phase of broilerization (weeks 20-28, LD 14:10); assay type: in vivo, chicken; conditions: p≦0.05
Excerpt: FIGS. 7A and 7B depict bar graphs showing testis weight response (7A) and plasma LH (7B) resulting from the “photoperiodic” phase of broilerization plus 0.2% SMZ added to a grower diet from 20 to 28 weeks of age. Testes and blood were sampled at 28 weeks of age. Photoperiod=LD 14:10.
FIGS. 8A and 8B show plasma FSH (8A) and testosterone (8B) resulting from blood samples taken as described with respect to FIGS. 7A and 7B.

[3] = test system: male broiler chicks; assay: 0.2% SMZ in starter ration during genetic selection phase of broilerization, from one week of age; assay type: in vivo, chicken
Excerpt: FIG. 4 depicts a bar graph showing the testes response resulting from the “genetic selection” phase of broilerization (see FIG. 1) plus 0.2% sulfamethazine (SMZ) added to a standard starter ration at one week of age.
FIGS. 5A and 5B depict graphs showing weekly levels of plasma luteinizing hormone (LH; 5A) and follicle stimulating hormone (FSH; 5B) in male broiler chicks fed a diet with 0.2% SMZ beginning at one week of age (*=p[…]0.05).
(§1) Blood samples were taken starting at day of SMZ administration and weekly following initiation of the treatment.

[4] = test system: broiler chicks; conditions: cited from earlier work
[5] = test system: male broiler chicks; assay: Daily plasma LH immediately following dietary administration of 0.2% SMZ, from one week of age; assay type: in vivo, chicken; conditions: 0.2% SMZ diet from one week of age, FIG. 6
Excerpt: FIG. 6 depicts a graph showing daily levels of LH immediately following dietary administration of 0.2% SMZ, beginning at one week of age (*=p<0.05).
as §1

[6] = test system: broiler chicks; assay: 0.2% SMZ in standard broiler ration, one to four weeks of age, continuous light versus LD 8:16; assay type: in vivo, chicken; conditions: 1-4 weeks of age
Experimental: FIG. 9 depicts a bar graph showing testes weight following 0.2% SMZ (1-4 weeks of age) in chicks exposed to LD 24:0 or LD 8:16.
In a further study using broiler chicks, SMZ at 0.2% was added to a standard broiler ration and fed to chicks from one to four weeks of age. One group was raised under continuous light while a second group was exposed to a photoperiod of LD 8:16. […] Although food intake was not measured in this experiment, body weight was taken at the beginning and end of the study. […] Sulfamethazine has a stimulatory effect upon testes growth when chicks are exposed to a long photoperiod. One possible interpretation is that SMZ appears to facilitate or amplify the stimulatory effect of long-day light on gonadal development in male chicks.

Compound | growth of the testes [1] | plasma LH ([2]; 0.2% SMZ weeks 20-28, LD 14:10, blood at week 28, FIG. 7B) | plasma FSH ([2]; 0.2% SMZ weeks 20-28, LD 14:10, blood at week 28, FIG. 8A) | plasma testosterone ([2]; 0.2% SMZ weeks 20-28, LD 14:10, blood at week 28, FIG. 8B) | testis weight versus controls ([2]; 0.2% SMZ weeks 20-28, LD 14:10, sampled at 28 weeks, FIG. 7A) | plasma luteinizing hormone (LH), weekly levels ([3]; 0.2% SMZ diet from one week of age, weekly blood samples, FIG. 5A) | plasma follicle stimulating hormone (FSH), weekly levels ([3]; 0.2% SMZ diet from one week of age, weekly blood samples, FIG. 5B) | rate of testes growth ([3]; 0.2% SMZ in starter ration from one week of age, FIG. 4) | semen production ([3]; 0.2% SMZ in starter ration, by nine weeks of age) | plasma gonadotropins ([4]; broiler chicks) | testes development ([4]; broiler chicks) | thyroid hormone ([4]; broiler chicks) | number of immuno-stained neuropeptide Y (NPY) neurons ([4]; broiler chicks, mediobasal hypothalamus and infundibular nucleus (IN)) | comb coloration (side effect) ([4]; chronic use of SMZ) | size of comb and testes (side effect) ([4]; chronic use of SMZ) | time until plasma LH was significantly elevated after consuming feed containing SMZ [5] | testes growth ([6]; continuous light (LD 24:0), p≦0.05, FIG. 9) | progonadal effects (testes weight) ([6]; short photoperiod LD 8:16, FIG. 9) | body weight, long-day versus short-day SMZ treated groups ([6]; weighed at beginning and end of study)
neuropeptide Y [NPY] | stimulates |  |  |  |  |  |  |  |  |  |  |  |  |  |  |  |  |  | 
Cc1cc(C)nc(NS(=O)(=O)c2ccc(N)cc2)n1 [SMZ, Sulfamethazine] |  | significantly elevated | significantly elevated | significantly elevated | significantly heavier than controls | significantly increased | significantly increased | significantly increased | produced viable semen | increases | significantly increases | transiently suppresses | increases | marked red coloration of the comb | increased size of both comb and testes | ≤ 48 h | significantly elevated | markedly attenuated | No significant difference
